Reference: ChEMBL document CHEMBL4371076 (J Med Chem, 2019)
The source made the active and inactive calls.

What was measured:
[1] = Permeability from basolateral to apical side in human Caco2 cells; assay type: ADME, cell-based; details: Caco-2, read-out: permeability
[2] = tested on: Mus musculus; assay: Analgesic activity in CD1 mouse model of CFA-induced thermal hyperalgesia assessed as reduction in thermal response latency at 30 mg/kg, ip administered 72 hrs post CFA challenge and measured at 180 mins post dose by Hargreave's test; assay type: functional, organism-based
[3] = target: T1, Sodium channel protein type 9 subunit alpha (Homo sapiens, UniProt Q15858); assay: Inhibition of recombinant human Nav1.7 expressed in HEK293 cells assessed as association time constant at -70 mV holding potential by patch clamp electrophysiology method; assay type: cell-based
Target sequence in this assay (Q15858 whole entry, looked up): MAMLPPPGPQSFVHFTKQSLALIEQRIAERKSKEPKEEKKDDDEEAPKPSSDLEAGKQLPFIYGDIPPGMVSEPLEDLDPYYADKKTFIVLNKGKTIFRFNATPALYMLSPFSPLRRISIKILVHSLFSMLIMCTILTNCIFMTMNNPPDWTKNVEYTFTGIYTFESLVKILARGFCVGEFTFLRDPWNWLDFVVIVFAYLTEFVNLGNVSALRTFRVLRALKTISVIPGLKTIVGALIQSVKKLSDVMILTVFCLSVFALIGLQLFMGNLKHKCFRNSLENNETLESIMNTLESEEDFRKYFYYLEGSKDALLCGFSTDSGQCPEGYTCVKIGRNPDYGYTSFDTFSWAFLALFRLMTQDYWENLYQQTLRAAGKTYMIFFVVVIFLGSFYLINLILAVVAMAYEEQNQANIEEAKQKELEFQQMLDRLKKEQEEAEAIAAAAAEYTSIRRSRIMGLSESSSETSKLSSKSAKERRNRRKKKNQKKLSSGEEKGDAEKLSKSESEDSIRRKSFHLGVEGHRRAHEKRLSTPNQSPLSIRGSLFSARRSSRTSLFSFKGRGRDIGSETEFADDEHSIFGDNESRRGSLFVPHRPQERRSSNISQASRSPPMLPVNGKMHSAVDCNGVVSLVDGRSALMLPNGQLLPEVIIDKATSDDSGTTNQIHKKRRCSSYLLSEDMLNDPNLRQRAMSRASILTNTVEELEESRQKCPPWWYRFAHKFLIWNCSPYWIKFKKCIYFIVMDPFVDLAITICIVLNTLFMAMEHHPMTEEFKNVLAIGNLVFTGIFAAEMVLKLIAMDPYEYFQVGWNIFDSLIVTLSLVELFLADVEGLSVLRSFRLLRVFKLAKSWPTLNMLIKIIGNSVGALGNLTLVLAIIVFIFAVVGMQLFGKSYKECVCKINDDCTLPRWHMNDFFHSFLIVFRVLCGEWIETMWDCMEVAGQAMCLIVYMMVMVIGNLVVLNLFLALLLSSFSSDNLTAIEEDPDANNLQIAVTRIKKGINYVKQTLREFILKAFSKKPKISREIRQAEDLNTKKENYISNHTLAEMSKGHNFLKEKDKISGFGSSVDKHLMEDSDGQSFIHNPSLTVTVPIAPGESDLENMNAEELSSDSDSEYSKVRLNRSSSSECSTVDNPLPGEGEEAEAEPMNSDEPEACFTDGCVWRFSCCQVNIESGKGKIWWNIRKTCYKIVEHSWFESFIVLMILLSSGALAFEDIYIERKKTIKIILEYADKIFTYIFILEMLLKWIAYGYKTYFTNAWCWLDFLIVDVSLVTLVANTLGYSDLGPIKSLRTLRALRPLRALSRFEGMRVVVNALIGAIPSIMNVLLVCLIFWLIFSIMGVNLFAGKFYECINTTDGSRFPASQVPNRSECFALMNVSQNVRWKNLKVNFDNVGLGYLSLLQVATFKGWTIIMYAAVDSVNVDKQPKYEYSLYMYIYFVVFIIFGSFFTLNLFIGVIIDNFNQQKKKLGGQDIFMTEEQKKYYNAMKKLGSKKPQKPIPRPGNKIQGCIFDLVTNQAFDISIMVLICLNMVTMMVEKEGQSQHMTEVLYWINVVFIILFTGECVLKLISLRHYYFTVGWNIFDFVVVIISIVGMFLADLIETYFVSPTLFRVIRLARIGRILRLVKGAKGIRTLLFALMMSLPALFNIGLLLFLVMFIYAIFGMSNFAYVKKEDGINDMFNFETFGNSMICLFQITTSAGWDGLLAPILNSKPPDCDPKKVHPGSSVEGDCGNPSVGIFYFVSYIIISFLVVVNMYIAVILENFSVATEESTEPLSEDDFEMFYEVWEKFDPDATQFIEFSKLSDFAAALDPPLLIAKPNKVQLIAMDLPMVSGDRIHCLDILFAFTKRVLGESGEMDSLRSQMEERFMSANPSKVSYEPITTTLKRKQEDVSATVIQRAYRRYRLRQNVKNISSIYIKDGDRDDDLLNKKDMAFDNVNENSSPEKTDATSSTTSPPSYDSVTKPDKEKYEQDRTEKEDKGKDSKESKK

[4] = target: Cytochrome P450 3A4 (Homo sapiens, UniProt P08684); assay: Inhibition of CYP3A4 in human liver microsomes; assay type: ADME
Cytochrome P450 3A4, sequence (P08684 whole entry): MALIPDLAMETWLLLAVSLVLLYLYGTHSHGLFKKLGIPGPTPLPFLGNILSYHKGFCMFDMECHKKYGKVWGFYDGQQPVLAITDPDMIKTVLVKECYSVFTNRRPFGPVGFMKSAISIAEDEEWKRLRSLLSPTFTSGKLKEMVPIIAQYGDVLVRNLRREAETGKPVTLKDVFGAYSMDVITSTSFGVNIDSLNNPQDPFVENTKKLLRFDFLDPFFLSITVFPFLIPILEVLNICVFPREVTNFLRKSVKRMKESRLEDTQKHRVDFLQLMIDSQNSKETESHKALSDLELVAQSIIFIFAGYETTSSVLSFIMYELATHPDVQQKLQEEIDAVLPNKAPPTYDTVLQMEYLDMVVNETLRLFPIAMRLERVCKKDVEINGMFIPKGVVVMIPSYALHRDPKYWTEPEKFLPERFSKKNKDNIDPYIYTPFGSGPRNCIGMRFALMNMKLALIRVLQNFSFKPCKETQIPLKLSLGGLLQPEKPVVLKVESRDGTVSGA

[5] = target: Sodium channel protein type 5 subunit alpha (Homo sapiens, UniProt Q14524); assay: Inhibition of human Nav1.5 expressed in HEK293 cells after 600 secs at -50 mV holding potential by ion works barracuda population patch clamp method; assay type: cell-based
[6] = Metabolic stability in human liver microsomes assessed as parent compound remaining at 0.5 uM after 10 mins; assay type: ADME, Microsome; details: read-out: Stability
[7] = Permeability of the compound at pH 5.5 by PAMPA; assay type: ADME; details: read-out: permeability
[8] = target: Cytochrome P450 2C19 (Homo sapiens, UniProt P33261); assay: Time-dependant inhibition of CYP2C19 in human liver microsomes; assay type: ADME
Cytochrome P450 2C19, sequence (P33261 whole entry): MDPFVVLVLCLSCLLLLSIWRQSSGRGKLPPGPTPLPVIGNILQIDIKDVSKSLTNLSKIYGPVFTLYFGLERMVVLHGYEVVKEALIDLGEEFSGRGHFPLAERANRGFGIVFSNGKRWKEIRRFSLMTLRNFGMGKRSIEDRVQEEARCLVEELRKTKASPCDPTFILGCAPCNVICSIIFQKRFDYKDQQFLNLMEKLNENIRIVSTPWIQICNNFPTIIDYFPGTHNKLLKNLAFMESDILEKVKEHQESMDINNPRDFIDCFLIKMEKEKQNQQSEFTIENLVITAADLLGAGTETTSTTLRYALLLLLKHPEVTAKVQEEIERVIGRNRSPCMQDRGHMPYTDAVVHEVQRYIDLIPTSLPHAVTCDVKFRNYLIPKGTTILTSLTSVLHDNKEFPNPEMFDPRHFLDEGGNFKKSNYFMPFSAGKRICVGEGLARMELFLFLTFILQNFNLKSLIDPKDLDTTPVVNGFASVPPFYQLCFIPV

[9] = tested on: Mus musculus; assay: Analgesic activity in CD1 mouse model of CFA-induced thermal hyperalgesia assessed as reduction in thermal response latency at 30 mg/kg, ip administered 72 hrs post CFA challenge and measured at 60 mins post dose by Hargreave's test; assay type: functional, organism-based
[10] = tested on: Mus musculus; assay: Reduction in mechanoreceptor-mediated afferent transmission in mouse assessed as effect on sural nerve mechanosensitivity at 30 mg/kg, ip measured at 5 to 120 mins post dose at 1.6 mN threshold pressure; assay type: functional, organism-based
[11] = target: T2, Cytochrome P450 2C8 (Homo sapiens, UniProt P10632); assay: Inhibition of CYP2C8 in human liver microsomes; assay type: ADME
T2 sequence (P10632 whole entry): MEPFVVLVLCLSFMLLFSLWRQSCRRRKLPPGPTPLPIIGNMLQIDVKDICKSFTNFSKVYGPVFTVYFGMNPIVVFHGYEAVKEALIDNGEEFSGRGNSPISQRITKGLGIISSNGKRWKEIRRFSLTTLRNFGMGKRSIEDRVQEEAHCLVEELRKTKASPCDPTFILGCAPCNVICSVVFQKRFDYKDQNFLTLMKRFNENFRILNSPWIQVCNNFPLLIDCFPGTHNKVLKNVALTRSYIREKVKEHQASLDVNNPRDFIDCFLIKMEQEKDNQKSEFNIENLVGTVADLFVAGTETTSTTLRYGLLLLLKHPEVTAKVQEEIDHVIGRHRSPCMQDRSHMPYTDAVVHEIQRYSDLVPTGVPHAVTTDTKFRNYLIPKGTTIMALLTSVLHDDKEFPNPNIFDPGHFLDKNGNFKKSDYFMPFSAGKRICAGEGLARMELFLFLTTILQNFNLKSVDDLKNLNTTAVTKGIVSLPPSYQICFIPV

[12] = target: T3, Nuclear receptor subfamily 1 group I member 2 (Homo sapiens, UniProt O75469); assay: Inhibition of PXR (unknown origin); assay type: ADME
T3 sequence (O75469 whole entry): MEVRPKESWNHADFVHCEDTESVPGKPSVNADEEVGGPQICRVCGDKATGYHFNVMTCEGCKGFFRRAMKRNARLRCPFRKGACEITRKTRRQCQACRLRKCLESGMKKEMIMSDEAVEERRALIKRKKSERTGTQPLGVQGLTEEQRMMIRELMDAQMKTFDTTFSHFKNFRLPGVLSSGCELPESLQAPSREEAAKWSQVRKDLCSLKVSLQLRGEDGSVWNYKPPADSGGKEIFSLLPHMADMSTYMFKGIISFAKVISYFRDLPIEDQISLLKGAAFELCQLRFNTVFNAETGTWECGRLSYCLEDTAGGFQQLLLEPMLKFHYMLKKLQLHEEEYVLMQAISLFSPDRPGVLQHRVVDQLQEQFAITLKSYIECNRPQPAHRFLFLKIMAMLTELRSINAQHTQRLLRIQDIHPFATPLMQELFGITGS

[13] = target: T4, Cytochrome P450 2B6 (Homo sapiens, UniProt P20813); assay: Inhibition of CYP2B6 in human liver microsomes; assay type: ADME
T4 sequence (P20813 whole entry): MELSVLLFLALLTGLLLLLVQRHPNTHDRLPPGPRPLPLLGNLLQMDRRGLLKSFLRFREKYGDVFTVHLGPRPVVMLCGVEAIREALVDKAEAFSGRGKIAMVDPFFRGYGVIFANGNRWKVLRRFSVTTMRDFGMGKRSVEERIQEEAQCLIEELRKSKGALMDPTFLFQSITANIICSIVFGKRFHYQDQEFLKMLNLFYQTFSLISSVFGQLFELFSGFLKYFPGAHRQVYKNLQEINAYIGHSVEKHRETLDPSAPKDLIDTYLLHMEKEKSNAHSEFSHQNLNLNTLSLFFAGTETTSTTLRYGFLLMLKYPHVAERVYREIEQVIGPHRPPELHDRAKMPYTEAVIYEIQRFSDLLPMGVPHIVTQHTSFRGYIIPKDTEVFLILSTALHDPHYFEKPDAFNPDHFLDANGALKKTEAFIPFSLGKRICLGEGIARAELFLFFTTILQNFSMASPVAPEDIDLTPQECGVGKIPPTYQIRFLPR

[14] = target: T1, Sodium channel protein type 9 subunit alpha; assay: Inhibition of human Nav1.7 expressed in HEK293 cells after 600 secs at -60 mV holding potential by ion works barracuda population patch clamp method; assay type: cell-based
Target sequence in this assay (Q15858 whole entry): as the sequence (Q15858 whole entry, looked up) above

[15] = target: T2, Cytochrome P450 2C8; assay: Time-dependant inhibition of CYP2C8 in human liver microsomes; assay type: ADME
[16] = Fraction unbound in human plasma; assay type: ADME, cell-free
[17] = target: Cytochrome P450 2C9 (Homo sapiens, UniProt P11712); assay: Time-dependant inhibition of CYP2C9 in human liver microsomes; assay type: ADME
Cytochrome P450 2C9, sequence (P11712 whole entry): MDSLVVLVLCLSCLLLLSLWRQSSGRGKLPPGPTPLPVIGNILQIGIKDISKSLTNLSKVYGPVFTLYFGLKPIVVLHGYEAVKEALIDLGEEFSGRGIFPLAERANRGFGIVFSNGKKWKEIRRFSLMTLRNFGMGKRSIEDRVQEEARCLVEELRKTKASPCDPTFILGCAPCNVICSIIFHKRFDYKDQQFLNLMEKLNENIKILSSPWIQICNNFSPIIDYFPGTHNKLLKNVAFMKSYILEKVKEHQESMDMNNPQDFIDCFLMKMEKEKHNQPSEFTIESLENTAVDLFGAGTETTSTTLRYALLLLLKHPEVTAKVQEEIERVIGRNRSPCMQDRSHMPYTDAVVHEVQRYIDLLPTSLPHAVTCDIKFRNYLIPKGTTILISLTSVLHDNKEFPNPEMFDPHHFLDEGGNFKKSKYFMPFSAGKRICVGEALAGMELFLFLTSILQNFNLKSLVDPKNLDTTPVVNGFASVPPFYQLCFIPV

[18] = Ratio of unbound plasma concentration in CD1 mouse model of CFA-induced thermal hyperalgesia at 3 to 30 mg/kg, ip to IC50 for recombinant mouse Nav1.7 expressed in HEK293 cells at -70 mV holding potential by patch clamp electrophysiology method; assay type: ADME, organism-based; details: in vivo
[19] = target: T5, Cytochrome P450 2D6 (Homo sapiens, UniProt P10635); assay: Time-dependant inhibition of CYP2D6 in human liver microsomes; assay type: ADME
T5 sequence (P10635 whole entry): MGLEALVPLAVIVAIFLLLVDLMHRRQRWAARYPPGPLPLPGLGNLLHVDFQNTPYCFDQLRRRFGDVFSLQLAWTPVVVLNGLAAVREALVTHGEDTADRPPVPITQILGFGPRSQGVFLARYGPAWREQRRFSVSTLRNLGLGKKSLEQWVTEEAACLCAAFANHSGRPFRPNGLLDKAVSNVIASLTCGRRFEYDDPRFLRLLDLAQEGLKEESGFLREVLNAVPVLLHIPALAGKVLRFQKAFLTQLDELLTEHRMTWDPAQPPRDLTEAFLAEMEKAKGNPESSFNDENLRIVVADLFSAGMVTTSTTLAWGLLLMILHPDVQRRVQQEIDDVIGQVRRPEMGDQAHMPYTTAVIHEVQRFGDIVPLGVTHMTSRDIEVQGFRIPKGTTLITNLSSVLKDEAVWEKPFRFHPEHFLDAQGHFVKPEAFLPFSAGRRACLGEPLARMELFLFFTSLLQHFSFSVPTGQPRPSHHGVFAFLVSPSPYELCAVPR

[20] = Plasma concentration in mouse model of mechanoreceptor-mediated afferent transmission at 30 mg/kg, ip after 2 hrs; assay type: ADME, organism-based
[21] = target: T4, Cytochrome P450 2B6; assay: Time-dependant inhibition of CYP2B6 in human liver microsomes; assay type: ADME
[22] = target: Sodium channel protein type 9 subunit alpha (Mus musculus, UniProt Q62205); assay: Inhibition of Nav1.7 in mouse DRG neurons at -70 mV holding potential by patch clamp electrophysiology method
[23] = Fraction unbound in mouse plasma; assay type: ADME, cell-free
[24] = Fraction unbound in mouse DRG neurons; assay type: ADME, cell-based, DRG neuron
[25] = target: T5, Cytochrome P450 2D6; assay: Inhibition of CYP2D6 in human liver microsomes; assay type: ADME
[26] = Fraction unbound in mouse trigeminal ganglia neuron tissue; assay type: ADME, tissue-based, Trigeminal ganglion
[27] = Permeability from apical to basolateral side in human Caco2 cells; assay type: ADME, cell-based; details: Caco-2, read-out: permeability

SMILES	Papp B→A [1] [×10⁻⁶ cm/s]	Activity [2]	TIME [3] [h]	IC50 [4] [µM]	IC50 [5] [µM]	remaining at 10 min, 0.5 µM [6] [%]	Papp [7] [×10⁻⁶ cm/s]	TDI [8]	Activity [9]	Activity [10]	IC50 [11] [µM]	IC50 [12] [µM]	IC50 [13] [µM]	IC50 [14] [µM]	TDI [15]	fraction unbound [16]	TDI [17]	Ratio [18]	TDI [19]	concentration at 2 h [20] [µM]	also measured
CC(C)COc1ccc(-c2cn(C)c3cc(C(=O)NS(C)(=O)=O)c(F)cc23)cn1	18.6	inactive	0.00336	15	16	98	80.2	Not Active	inactive	inactive	1	> 50	> 40	0.089	Not Active	0.008	Not Active	4 to 5	Not Active	57	TDI [21]: Not Active; IC50 [22]: 0.014 µM; fraction unbound [23]: 0.014; fraction unbound [24]: 0.085; IC50 [25]: > 40 µM; fraction unbound [26]: 0.069; Papp A→B [27]: 6.1 ×10⁻⁶ cm/s
CC(C)COc1ncc(-c2cn(C)c3cc(C(=O)NS(C)(=O)=O)ccc23)cc1Cl	16.8	inactive	0.00267	> 40	19	95	44.3	Not Active	Active	inactive	1	> 50	9.7	0.108	Not Active	< 0.001	Not Active	4 to 5	Not Active	89	TDI [21]: Not Active; IC50 [22]: 0.011 µM; fraction unbound [23]: 0.002; fraction unbound [24]: 0.035; IC50 [25]: > 40 µM; fraction unbound [26]: 0.035; Papp A→B [27]: < 1.5 ×10⁻⁶ cm/s
